Where “and” joins values, the source holds several entries; their conditions need not be identical. Equal values may be shown once. Inconclusive results and toxic doses are left out. Cut-off read from the data, not from the text of the source: active = T/C of 150% or more; inactive = T/C below 125%.
Test system: L1210 leukemia ip in BDF1 mice, survival T/C
Experiment: NCI In Vivo Anticancer Drug Screen. Data for tumor model L1210 Leukemia (intraperitoneal) in B6D2F1 (BDF1) mice
Details: endpoint: mean survival time, higher = longer survival
How it was run: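 Ratio derived from survival: compound-dosed mice over vehicle-dosed mice, all bearing a transplantable tumor.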

[1] = dose: 100.0 mg/kg/injection, schedule: Q01DX001 (ip), vehicle: Klucel (hydroxypropylcellulose) (HPC)
[2] = dose: 200.0 mg/kg/injection, schedule: Q01DX001 (ip), vehicle: Klucel (hydroxypropylcellulose) (HPC)
[3] = dose: 400.0 mg/kg/injection, schedule: Q01DX001 (ip), vehicle: Klucel (hydroxypropylcellulose) (HPC)
[4] = dose: 100.0 mg/kg/injection, schedule: Q01DX001 (ip), vehicle: saline
[5] = dose: 200.0 mg/kg/injection, schedule: Q01DX001 (ip), vehicle: saline
[6] = dose: 400.0 mg/kg/injection, schedule: Q01DX001 (ip), vehicle: saline
[7] = dose: 100.0 mg/kg/injection, schedule: Q04DX002 (ip), vehicle: Klucel (hydroxypropylcellulose) (HPC)
[8] = dose: 100.0 mg/kg/injection, schedule: Q01DX009 (ip), vehicle: saline with Tween-80
[9] = dose: 200.0 mg/kg/injection, schedule: Q01DX009 (ip), vehicle: saline with Tween-80
[10] = dose: 100.0 mg/kg/injection, schedule: Q01DX009 (ip), vehicle: Klucel (hydroxypropylcellulose) (HPC)
[11] = dose: 200.0 mg/kg/injection, schedule: Q01DX009 (ip), vehicle: Klucel (hydroxypropylcellulose) (HPC)
[12] = dose: 400.0 mg/kg/injection, schedule: Q01DX009 (ip), vehicle: Klucel (hydroxypropylcellulose) (HPC)
[13] = dose: 100.0 mg/kg/injection, schedule: Q01DX001 (ip), vehicle: carboxymethylcellulose (CMC)
[14] = dose: 200.0 mg/kg/injection, schedule: Q01DX001 (ip), vehicle: carboxymethylcellulose (CMC)
[15] = dose: 100.0 mg/kg/injection, schedule: Q04DX003 (ip), vehicle: saline

Measured: T/C

Cc1n(C)c(=O)c2ccccc2[n+]1C
inactive: [1] 106 % of control | [2] 87 % of control | [3] 97 % of control

CCC(N)C(=O)O (stereo not given)
inactive: [4] 108 % of control | [5] 102 % of control | [6] 94 % of control

Cc1nonc1C(=O)NN
inactive: dose: 25.0 mg/kg/injection, schedule: Q04DX002 (ip), vehicle: Klucel (hydroxypropylcellulose) (HPC) 93 % of control | dose: 50.0 mg/kg/injection, schedule: Q04DX002 (ip), vehicle: Klucel (hydroxypropylcellulose) (HPC) 110 % of control | [7] 93 % of control and 101 % of control

c1ccc([Si](OO[Si](c2ccccc2)(c2ccccc2)c2ccccc2)(c2ccccc2)c2ccccc2)cc1
inactive: [8] 86 % of control | [9] 87 % of control

CCCCCC/C=C/C#CCCCCCCCC(=O)O
inactive: dose: 37.5 mg/kg/injection, schedule: Q01DX009 (ip), vehicle: Klucel (hydroxypropylcellulose) (HPC) 105 % of control | dose: 75.0 mg/kg/injection, schedule: Q01DX009 (ip), vehicle: Klucel (hydroxypropylcellulose) (HPC) 98 % of control | dose: 150.0 mg/kg/injection, schedule: Q01DX009 (ip), vehicle: Klucel (hydroxypropylcellulose) (HPC) 102 % of control

C=CC(=O)N1CN(C(=O)C=C)CN(C(=O)C=C)C1
inactive: dose: 1.25 mg/kg/injection, schedule: Q01DX009 (ip), vehicle: saline 99 % of control | dose: 2.5 mg/kg/injection, schedule: Q01DX009 (ip), vehicle: saline 99 % of control | dose: 5.0 mg/kg/injection, schedule: Q01DX009 (ip), vehicle: saline 104 % of control

O=C(NO)c1cccnc1
inactive: [10] 97 % of control | [11] 102 % of control | dose: 270.0 mg/kg/injection, schedule: Q01DX009 (ip), vehicle: acetone 102 % of control | dose: 270.0 mg/kg/injection, schedule: Q01DX015 (ip), vehicle: water 121 % of control | dose: 400.0 mg/kg/injection, schedule: Q01DX001 (ip), vehicle: water 99 % of control | [12] 101 % of control | dose: 400.0 mg/kg/injection, schedule: Q01DX009 (ip), vehicle: acetone 109 % of control | dose: 600.0 mg/kg/injection, schedule: Q01DX001 (ip), vehicle: water 106 % of control | dose: 600.0 mg/kg/injection, schedule: Q01DX009 (ip), vehicle: acetone 100 % of control | dose: 800.0 mg/kg/injection, schedule: Q01DX001 (ip), vehicle: water 99 % of control | dose: 800.0 mg/kg/injection, schedule: Q01DX009 (ip), vehicle: Klucel (hydroxypropylcellulose) (HPC) 109 % of control | dose: 800.0 mg/kg/injection, schedule: Q01DX009 (ip), vehicle: acetone 103 % of control | dose: 800.0 mg/kg/injection, schedule: Q01DX015 (ip), vehicle: water 110 % of control and 117 % of control

O=[N+]([O-])c1c(Br)sc(Br)c1[N+](=O)[O-]
inactive: dose: 2.5 mg/kg/injection, schedule: Q01DX009 (ip), vehicle: Klucel (hydroxypropylcellulose) (HPC) 88 % of control | dose: 2.5 mg/kg/injection, schedule: Q04DX003 (ip), vehicle: Klucel (hydroxypropylcellulose) (HPC) 109 % of control | dose: 5.0 mg/kg/injection, schedule: Q01DX009 (ip), vehicle: Klucel (hydroxypropylcellulose) (HPC) 88 % of control | dose: 5.0 mg/kg/injection, schedule: Q04DX003 (ip), vehicle: Klucel (hydroxypropylcellulose) (HPC) 101 % of control | dose: 10.0 mg/kg/injection, schedule: Q01DX009 (ip), vehicle: Klucel (hydroxypropylcellulose) (HPC) 108 % of control | dose: 10.0 mg/kg/injection, schedule: Q04DX003 (ip), vehicle: Klucel (hydroxypropylcellulose) (HPC) 96 % of control

CCCCCCOc1ccc(/C=N\N=C\c2ccc(OCCCCCC)cc2)cc1
inactive: [8] 92 % of control | [9] 89 % of control | dose: 400.0 mg/kg/injection, schedule: Q01DX009 (ip), vehicle: saline with Tween-80 91 % of control

CCCCNC(=NC)c1ccc(NC(=O)Nc2ccc(NC(=O)Nc3ccc(C(=NC)NCCCC)cc3)cc2)cc1
inactive: dose: 2.0 mg/kg/injection, schedule: Q01DX Z (ip), vehicle: methylcellulose (MC) 103 % of control | dose: 3.9 mg/kg/injection, schedule: Q01DX Z (ip), vehicle: methylcellulose (MC) 96 % of control

CSc1cc(N)nc2c1ncn2C1OC(CO)C(O)C1O (stereo not given)
inactive: [4] 113 % of control | [5] 93 % of control | [6] 103 % of control

N=C(N)SC1c2cc(Cl)ccc2-c2c(Cl)cc(Cl)cc21 (stereo not given)
inactive: [13] 94 % of control | [14] 92 % of control

CCOC(=O)CCC(C)C(C)=O (stereo not given)
inactive: dose: 50.0 mg/kg/injection, schedule: Q04DX002 (ip), vehicle: saline with Tween-80 108 % of control | [4] 109 % of control | dose: 100.0 mg/kg/injection, schedule: Q04DX002 (ip), vehicle: saline with Tween-80 103 % of control | [5] 98 % of control | dose: 200.0 mg/kg/injection, schedule: Q04DX002 (ip), vehicle: saline with Tween-80 108 % of control | [6] 98 % of control

COc1cccc(NN)c1
inactive: dose: 50.0 mg/kg/injection, schedule: Q01DX009 (ip), vehicle: saline 100 % of control | [15] 101 % of control

CNC1=C(C)C(=O)C2=C(C1=O)C(COC(N)=O)C1(O)C3C(CN21)N3C (stereo not given)
inactive: dose: 6.6 mg/kg/injection, schedule: Q01DX001 (ip), vehicle: alcohol 100 % of control | dose: 15.0 mg/kg/injection, schedule: Q01DX001 (ip), vehicle: acetone 104 % of control

O=C(/C=C\c1ccccc1)c1ccc(Cl)cc1
inactive: [10] 97 % of control | [11] 97 % of control | [12] 100 % of control

CC(C)C(=O)Nc1ccc([N+](=O)[O-])c(C(F)(F)F)c1
inactive: [1] 102 % of control | [10] 93 % of control and 109 % of control | dose: 100.0 mg/kg/injection, schedule: Q01DX009 (ip), vehicle: saline 105 % of control | [7] 97 % of control and 92 % of control | dose: 100.0 mg/kg/injection, schedule: Q04DX003 (ip), vehicle: Klucel (hydroxypropylcellulose) (HPC) 100 % of control | [15] 108 % of control | [2] 102 % of control | [11] 100 % of control and 103 % of control | dose: 200.0 mg/kg/injection, schedule: Q01DX009 (ip), vehicle: saline 92 % of control | dose: 200.0 mg/kg/injection, schedule: Q04DX002 (ip), vehicle: Klucel (hydroxypropylcellulose) (HPC) 100 % of control and 102 % of control | dose: 200.0 mg/kg/injection, schedule: Q04DX003 (ip), vehicle: Klucel (hydroxypropylcellulose) (HPC) 109 % of control | dose: 200.0 mg/kg/injection, schedule: Q04DX003 (ip), vehicle: saline 101 % of control | [3] 110 % of control | dose: 400.0 mg/kg/injection, schedule: Q04DX002 (ip), vehicle: Klucel (hydroxypropylcellulose) (HPC) 100 % of control and 113 % of control | dose: 400.0 mg/kg/injection, schedule: Q04DX003 (ip), vehicle: Klucel (hydroxypropylcellulose) (HPC) 92 % of control | dose: 400.0 mg/kg/injection, schedule: Q04DX003 (ip), vehicle: saline 88 % of control

CCOc1ccc(Br)cc1C1N(Cc2ccc(N(CCCl)CCCl)cc2C)CCCN1Cc1ccc(N(CCCl)CCCl)cc1C
inactive: [13] 106 % of control | [14] 101 % of control | dose: 400.0 mg/kg/injection, schedule: Q01DX001 (ip), vehicle: carboxymethylcellulose (CMC) 108 % of control

CC(CC=C(CCC(C)CC(C)(C)C)CCC(C)CC(C)(C)C)CC(C)(C)C (stereo not given)
inactive: dose: 75.0 mg/kg/injection, schedule: Q01DX001 (ip), vehicle: saline with Tween-80 99 % of control | dose: 150.0 mg/kg/injection, schedule: Q01DX001 (ip), vehicle: saline with Tween-80 100 % of control | dose: 300.0 mg/kg/injection, schedule: Q01DX001 (ip), vehicle: saline with Tween-80 97 % of control

[F][Sn]([c]1ccc(Cl)cc1)([c]1ccc(Cl)cc1)[c]1ccc(Cl)cc1
inactive: dose: 0.18 mg/kg/injection, schedule: Q04DX003 (ip), vehicle: other 97 % of control | dose: 0.37 mg/kg/injection, schedule: Q04DX003 (ip), vehicle: other 101 % of control | dose: 0.75 mg/kg/injection, schedule: Q04DX003 (ip), vehicle: other 93 % of control | dose: 1.5 mg/kg/injection, schedule: Q04DX003 (ip), vehicle: other 100 % of control

Reference: PubChem BioAssay AID248 (DTP/NCI, 2004)
